Data published in patent publication US20230303497A1, “BENZYLAMINE OR BENZYL ALCOHOL DERIVATIVE AND USES THEREOF” (CHENGDU HYPERWAY PHARMACEUTICALS CO., LTD, priority 2020, published 2023).
Where two headings read alike, the source gives them in different places.

How the values were obtained:
NaV1.6 = NaV1.6 (Homo sapiens (Human), UniProt Q9UQD0); assay: Selectivity test for Nav ion channel subtypes: NaV1.6 (HEK293, patch clamp); format: cell-based; conditions: 1 uM; HEK293 cells
Method: (§1) Test Case 3: Compound Selectivity Test for Nav Ion Channel Subtypes
(§2) The aim of this test is to investigate effect of compounds on human Na ion channel cells expressed in steady-state (NaV1.1, NaV1.3, NaV1.4, NaV1.5, NaV1.6, NaV1.7). After Na ion currents is stabilized, the effect can be obtained by comparing the magnitude of Na channel currents before and after the application of the compounds.
(§3) The test compound is stored at a concentration of 9 mM in dimethyl sulfoxide (DMSO), and on the day of testing, dissolve in extracellular solution, then prepare to a screening concentration of 1 uM.
(§4) All experiments are performed at room temperature. Each cell itself is taken as the corresponding control.
(§5) At least one cell is tested per concentration.
(§6) HEK293 cells steadily expressing NaV1.1-, NaV1.3-, NaV1.4-, NaV1.5-, NaV1.6-ion channels; CHO cells expressing steadily NaV1.7 ion channel.
(§7) The intracellular fluid (mM) is: Aspartic acid, 140; MgCl2, 2; EGTA 11; HEPES, 10; pH 7.2 (CsOH titration). […] Electrodes are drawn with PC-10 (Narishige, Japan). Recording is performed with whole-cell diaphragm clamp.
(§8) Cells are clamped at −80 mV and then depolarized to −10 mV with a sustained 10 ms square wave to obtain Na ion channel currents (see the FIGURE). This process is repeated every 5 seconds. […] The strength of the block is calculated after the response is stabilized.

NaV1.4 = NaV1.4 (Homo sapiens (Human), UniProt P35499); assay: Selectivity test for Nav ion channel subtypes: NaV1.4 (HEK293, patch clamp); format: cell-based; conditions: 1 uM; HEK293 cells
Method: as §1, §2, §3, §4, §5, §6, §7, §8

NaV1.7 = NaV1.7 (Homo sapiens (Human), UniProt Q15858); assay: Selectivity test for Nav ion channel subtypes: NaV1.7 (CHO cells, patch clamp); format: cell-based; conditions: 1 uM
Method: as §1, §2, §3, §4, §5, §6, §7, §8

hERG ion channels = hERG ion channels (Homo sapiens (Human), UniProt Q12809); assay: Inhibition activity test on hERG ion channels in HEK293 cells (cardiac safety, patch clamp)
Method: This experiment is used as a cardiac safety test of compound.
The reagents are purchased from Sigma (St. Louis, MO) except NaOH and KOH for acid-base titration. Final concentrations of tested solutions are prepared on the testing day and dissolved in extracellular fluid. […] All the test solutions and the control solutions contain 0.3% DMSO. Intracellular fluid (mM) contains: K Aspartate, 130; MgCl2, 5; EGTA 5; HEPES, 10; Tris-ATP 4; pH 7.2 (KOH titration).
Cells: all experiments is performed at room temperature. Each cell itself is taken as the corresponding control.
Compounds are all perfused using a perfusion system that utilizes the gravity. At least two cells are tested per concentration. After current stabilization (or 5 minutes), the change in current magnitude before and after the use of the compound is compared to calculate the blocking effect of the compound.
The method of operation is the same as that of the test compound.
Electrophysiology: Transfer the Cells to the perfusion tank and perfuse with extracellular fluid. The intracellular fluid (mM) contains: K Aspartate, 130; MgCl2, 5; EGTA 5; HEPES, 10; Tris-ATP 4; pH 7.2 (KOH titration). The intracellular fluid is stored in small quantities in portions in a −80° C. refrigerator, and melt on the day of the experiment. Electrodes are drawn with PC-10 (Narishige, Japan). Recording is performed with whole-cell diaphragm clamp. Noise is filtered with one-fifth of the sampling frequency.
This process is repeated every 20 seconds. The hERG tail current is the pure hERG current. The maximum tail current triggered by the second square wave is detected, and when the current is stabilized, the test compound is perfused. The strength of the block is calculated when the response is stabilized.

NaV1.3 = NaV1.3 (Homo sapiens (Human), UniProt Q9NY46); assay: Selectivity test for Nav ion channel subtypes: NaV1.3 (HEK293, patch clamp); format: cell-based; conditions: 1 uM; HEK293 cells
Method: as §1, §2, §3, §4, §5, §6, §7, §8

human NaV1.8 ion channel = human NaV1.8 ion channel (Homo sapiens (Human), UniProt Q9Y5Y9); assay: Compound inhibition activity on human NaV1.8 ion channel in HEK293 cells (whole-cell patch clamp); format: cell-based; conditions: 100 nm concentration, HEK293 cells, resting protocol; for inhibition at 0.1 µM: read-out: Inhibition ratio of compounds against Nav1.8 (Activity of inhibition)
NaV1.5 = NaV1.5 (Homo sapiens (Human), UniProt Q14524); assay: Selectivity test for Nav ion channel subtypes: NaV1.5 (HEK293, patch clamp); format: cell-based; conditions: 1 uM; HEK293 cells
Method: as §1, §2, §3, §4, §5, §6, §7, §8

NaV1.1 = NaV1.1 (Homo sapiens (Human), UniProt P35498); assay: Selectivity test for Nav ion channel subtypes: NaV1.1 (HEK293, patch clamp); format: cell-based; conditions: 1 uM; HEK293 cells
Method: as §1, §2, §3, §4, §5, §6, §7, §8

[1] = In vivo pharmacokinetic testing of compounds in rats; conditions: male SD rats, single oral dose 100 mg/kg, plasma, VX-150 dosed as prodrug, active form analysed
Method: Test Case 4: In Vivo Pharmacokinetic Testing of Compounds in Rats
All SD rats in the test are male and are purchased from Shanghai Sippe-Bk Lab Animal Co., Ltd. Each compound is administered orally (100 mg/kg, 3 rats per group) at single dose to SD rats for pharmacokinetic study. The solutions are prepared on the same day of administration, e.g., the tested compound is suspended in 5% DMSO+95% saline, get vortexed for 2 min, and sonicated for 5 min to prepare a drug delivery system. The animals are fasted for 10-14 hours before oral administration, and resumed food 4 hours after administration. After oral administration by gavage in SD rats, pharmacokinetic samples are collected from jugular vein at the following time points: 0, 15 min, 30 min, 1 h, 2 h, 4 h, 6 h, 8 h and 24 h. Three whole blood samples are collected at each time point in a volume of about 0.2 mL and anticoagulated using sodium heparin. Blood samples are placed on ice immediately after collection and plasma is separated by centrifugation within 1 h (centrifugation conditions: 6800 rpm, 6 min, 2-8° C.). The collected plasma is stored in a −80° C. refrigerator prior to analysis.
In pharmacokinetic tests in rat, the control compound VX-150 is a prodrug (WO2015089361, compound 9), after administration, analysis is performed to test its active form (WO2014120808, compound 10). The aforementioned in vitro pharmacological tests are performed using the active ingredient (WO2014120808, compound 10).

Chain of human NaV1.8 ion channel (Q9Y5Y9 whole entry): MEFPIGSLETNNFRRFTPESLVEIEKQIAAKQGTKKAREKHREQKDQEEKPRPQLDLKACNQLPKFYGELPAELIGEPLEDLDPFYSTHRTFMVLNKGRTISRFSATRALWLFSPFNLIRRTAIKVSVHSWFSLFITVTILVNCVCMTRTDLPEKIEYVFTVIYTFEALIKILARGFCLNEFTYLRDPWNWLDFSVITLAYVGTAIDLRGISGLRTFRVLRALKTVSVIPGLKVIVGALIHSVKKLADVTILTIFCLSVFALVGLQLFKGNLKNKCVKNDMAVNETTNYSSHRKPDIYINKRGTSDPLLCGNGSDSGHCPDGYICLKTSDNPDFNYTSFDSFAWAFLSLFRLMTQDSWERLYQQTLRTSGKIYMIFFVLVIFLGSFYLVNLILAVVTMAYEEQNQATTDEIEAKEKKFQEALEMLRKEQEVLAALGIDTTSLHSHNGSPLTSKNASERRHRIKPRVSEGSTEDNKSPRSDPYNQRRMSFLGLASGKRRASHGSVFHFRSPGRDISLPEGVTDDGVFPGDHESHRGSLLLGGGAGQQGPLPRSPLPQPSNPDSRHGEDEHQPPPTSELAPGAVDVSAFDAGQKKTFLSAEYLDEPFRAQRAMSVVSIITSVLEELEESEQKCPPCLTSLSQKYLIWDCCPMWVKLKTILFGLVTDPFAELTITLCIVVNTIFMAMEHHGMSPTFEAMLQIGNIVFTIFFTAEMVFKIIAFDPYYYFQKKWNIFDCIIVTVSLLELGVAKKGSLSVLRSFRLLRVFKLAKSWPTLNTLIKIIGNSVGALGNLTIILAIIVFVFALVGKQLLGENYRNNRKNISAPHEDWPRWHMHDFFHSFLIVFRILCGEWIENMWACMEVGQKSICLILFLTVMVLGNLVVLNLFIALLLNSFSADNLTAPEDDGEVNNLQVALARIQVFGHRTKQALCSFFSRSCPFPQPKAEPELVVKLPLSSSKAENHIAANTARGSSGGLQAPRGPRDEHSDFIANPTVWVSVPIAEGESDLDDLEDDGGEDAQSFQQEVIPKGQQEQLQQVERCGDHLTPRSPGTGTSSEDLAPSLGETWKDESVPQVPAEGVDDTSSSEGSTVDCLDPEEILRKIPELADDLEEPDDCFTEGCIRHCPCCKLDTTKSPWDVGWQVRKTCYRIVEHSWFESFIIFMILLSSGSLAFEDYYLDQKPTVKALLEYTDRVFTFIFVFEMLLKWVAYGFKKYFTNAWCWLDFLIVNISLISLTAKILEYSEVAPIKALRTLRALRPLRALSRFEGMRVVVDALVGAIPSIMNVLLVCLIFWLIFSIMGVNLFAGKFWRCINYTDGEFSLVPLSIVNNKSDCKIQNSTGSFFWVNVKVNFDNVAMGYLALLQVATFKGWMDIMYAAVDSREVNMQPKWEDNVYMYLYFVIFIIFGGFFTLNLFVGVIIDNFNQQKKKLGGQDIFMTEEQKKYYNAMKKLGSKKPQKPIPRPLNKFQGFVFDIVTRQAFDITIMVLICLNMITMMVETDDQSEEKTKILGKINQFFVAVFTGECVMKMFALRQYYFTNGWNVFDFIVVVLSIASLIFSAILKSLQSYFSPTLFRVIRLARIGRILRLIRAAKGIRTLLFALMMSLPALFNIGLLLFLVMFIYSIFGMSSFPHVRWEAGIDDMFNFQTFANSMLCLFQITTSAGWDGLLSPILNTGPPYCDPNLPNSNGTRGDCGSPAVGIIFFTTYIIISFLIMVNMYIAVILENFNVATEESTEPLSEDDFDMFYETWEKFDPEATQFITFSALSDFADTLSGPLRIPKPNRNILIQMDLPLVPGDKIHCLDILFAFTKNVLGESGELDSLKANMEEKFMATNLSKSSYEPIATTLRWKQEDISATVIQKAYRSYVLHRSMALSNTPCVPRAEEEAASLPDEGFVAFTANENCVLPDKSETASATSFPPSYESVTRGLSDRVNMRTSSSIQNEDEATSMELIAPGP
Chain of NaV1.3 (Q9NY46 whole entry): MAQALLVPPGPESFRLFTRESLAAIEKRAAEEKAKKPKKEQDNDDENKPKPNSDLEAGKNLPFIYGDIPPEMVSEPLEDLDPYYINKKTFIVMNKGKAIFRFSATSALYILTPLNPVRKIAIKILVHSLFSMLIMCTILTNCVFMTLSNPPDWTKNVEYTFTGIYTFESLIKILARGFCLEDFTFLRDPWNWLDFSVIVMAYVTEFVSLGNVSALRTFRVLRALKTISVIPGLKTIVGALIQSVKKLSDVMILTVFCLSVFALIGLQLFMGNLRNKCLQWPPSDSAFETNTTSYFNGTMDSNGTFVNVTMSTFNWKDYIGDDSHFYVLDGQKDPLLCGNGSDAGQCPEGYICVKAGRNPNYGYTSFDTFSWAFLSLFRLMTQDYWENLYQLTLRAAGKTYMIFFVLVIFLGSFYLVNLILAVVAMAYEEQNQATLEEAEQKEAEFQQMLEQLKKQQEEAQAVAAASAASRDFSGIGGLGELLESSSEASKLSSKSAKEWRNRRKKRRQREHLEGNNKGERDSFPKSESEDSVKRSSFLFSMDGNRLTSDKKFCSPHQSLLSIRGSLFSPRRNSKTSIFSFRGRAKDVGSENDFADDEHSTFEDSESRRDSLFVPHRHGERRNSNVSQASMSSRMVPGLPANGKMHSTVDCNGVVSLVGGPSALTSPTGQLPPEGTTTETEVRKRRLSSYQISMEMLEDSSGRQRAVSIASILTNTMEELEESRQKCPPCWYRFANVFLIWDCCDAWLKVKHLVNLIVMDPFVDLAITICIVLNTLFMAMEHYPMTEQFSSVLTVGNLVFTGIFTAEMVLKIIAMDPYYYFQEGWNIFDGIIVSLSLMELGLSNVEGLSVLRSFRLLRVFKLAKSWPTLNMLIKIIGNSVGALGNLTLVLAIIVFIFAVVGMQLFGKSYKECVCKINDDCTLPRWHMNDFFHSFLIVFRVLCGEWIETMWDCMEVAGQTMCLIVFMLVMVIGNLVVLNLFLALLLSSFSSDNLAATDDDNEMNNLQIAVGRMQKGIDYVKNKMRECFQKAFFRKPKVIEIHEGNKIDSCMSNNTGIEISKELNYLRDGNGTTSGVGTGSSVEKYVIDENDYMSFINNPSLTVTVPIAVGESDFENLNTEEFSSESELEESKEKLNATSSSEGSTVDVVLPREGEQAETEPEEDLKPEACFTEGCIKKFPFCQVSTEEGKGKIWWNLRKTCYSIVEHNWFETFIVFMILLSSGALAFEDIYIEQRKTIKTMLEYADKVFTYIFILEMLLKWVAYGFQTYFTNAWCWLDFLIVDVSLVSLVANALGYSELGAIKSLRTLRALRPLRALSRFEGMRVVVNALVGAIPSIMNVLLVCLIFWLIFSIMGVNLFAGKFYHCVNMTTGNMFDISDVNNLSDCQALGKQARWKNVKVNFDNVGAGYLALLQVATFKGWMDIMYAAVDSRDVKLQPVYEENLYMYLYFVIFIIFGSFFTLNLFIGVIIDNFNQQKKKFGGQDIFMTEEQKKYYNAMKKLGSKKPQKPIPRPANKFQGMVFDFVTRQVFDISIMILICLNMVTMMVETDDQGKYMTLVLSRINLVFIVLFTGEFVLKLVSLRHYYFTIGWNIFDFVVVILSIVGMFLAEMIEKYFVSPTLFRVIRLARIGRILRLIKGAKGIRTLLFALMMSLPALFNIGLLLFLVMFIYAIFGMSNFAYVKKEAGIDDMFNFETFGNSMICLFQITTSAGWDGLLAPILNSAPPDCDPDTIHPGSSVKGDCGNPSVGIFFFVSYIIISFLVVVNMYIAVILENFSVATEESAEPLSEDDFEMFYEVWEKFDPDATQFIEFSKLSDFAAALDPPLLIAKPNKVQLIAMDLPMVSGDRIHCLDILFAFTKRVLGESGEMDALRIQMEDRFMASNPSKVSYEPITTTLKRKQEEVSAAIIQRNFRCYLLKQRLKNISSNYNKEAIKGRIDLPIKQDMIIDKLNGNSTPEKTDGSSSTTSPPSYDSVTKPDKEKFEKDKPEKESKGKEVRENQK
Chain of hERG ion channels (Q12809 whole entry): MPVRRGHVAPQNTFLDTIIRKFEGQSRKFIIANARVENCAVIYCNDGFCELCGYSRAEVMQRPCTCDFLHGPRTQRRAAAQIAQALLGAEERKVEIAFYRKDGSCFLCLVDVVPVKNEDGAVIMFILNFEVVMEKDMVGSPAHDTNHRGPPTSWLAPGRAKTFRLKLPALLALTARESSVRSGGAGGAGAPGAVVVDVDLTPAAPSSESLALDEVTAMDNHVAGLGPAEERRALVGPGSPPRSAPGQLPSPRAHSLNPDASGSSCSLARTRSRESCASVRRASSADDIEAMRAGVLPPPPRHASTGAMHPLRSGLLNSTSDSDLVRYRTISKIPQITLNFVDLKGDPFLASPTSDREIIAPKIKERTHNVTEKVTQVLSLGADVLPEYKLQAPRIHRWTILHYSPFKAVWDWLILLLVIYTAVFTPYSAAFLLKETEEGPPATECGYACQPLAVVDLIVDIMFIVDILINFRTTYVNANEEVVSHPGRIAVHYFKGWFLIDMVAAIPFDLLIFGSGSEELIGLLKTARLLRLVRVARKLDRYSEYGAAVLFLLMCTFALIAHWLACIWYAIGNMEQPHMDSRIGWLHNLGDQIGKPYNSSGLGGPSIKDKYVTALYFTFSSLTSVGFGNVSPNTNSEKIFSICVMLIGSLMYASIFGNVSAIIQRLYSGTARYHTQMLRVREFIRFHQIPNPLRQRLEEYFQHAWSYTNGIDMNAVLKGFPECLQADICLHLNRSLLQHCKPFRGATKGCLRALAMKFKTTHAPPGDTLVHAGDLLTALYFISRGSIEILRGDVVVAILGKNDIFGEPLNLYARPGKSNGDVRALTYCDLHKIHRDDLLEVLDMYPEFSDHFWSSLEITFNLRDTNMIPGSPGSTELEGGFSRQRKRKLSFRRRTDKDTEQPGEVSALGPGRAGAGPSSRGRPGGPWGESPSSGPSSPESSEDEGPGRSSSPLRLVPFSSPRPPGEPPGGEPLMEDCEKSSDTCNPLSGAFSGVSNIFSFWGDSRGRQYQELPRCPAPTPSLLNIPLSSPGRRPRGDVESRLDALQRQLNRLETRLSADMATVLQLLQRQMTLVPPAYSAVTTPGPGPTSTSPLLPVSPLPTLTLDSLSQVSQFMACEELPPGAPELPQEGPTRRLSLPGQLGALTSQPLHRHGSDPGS

Cc1cc(F)ccc1Oc1cc(C(F)(F)F)c(Cl)cc1C(=O)Nc1ccc(F)c(OC[C@H](O)CNC(=O)CO)c1 [Example 117]
Inhibition ratio on Nav1.6 (NaV1.6): <1%
Inhibition ratio on Nav1.4 (NaV1.4): <1%
Inhibition ratio on Nav1.7 (NaV1.7): <1%
IC50 (hERG ion channels): 6 µM
Inhibition ratio on Nav1.3 (NaV1.3): 1.2%
inhibition at 0.1 µM (human NaV1.8 ion channel): > 80%
Inhibition ratio on Nav1.5 (NaV1.5): 5.0%
Inhibition ratio on Nav1.1 (NaV1.1): <1%
half-life ([1]; rat): 3 h
AUC ([1]; rat, read-out: AUC): 114000 ng·h/mL
Cmax ([1]; rat, read-out: Cmax): 9570 ng/mL

Cc1cc(F)ccc1Oc1cc(C2CC2)c(C(F)(F)F)cc1C(=O)Nc1ccc(F)c(OC[C@H](O)CNC(=O)CO)c1 [Example 119]
Inhibition ratio on Nav1.6 (NaV1.6): 5.1%
Inhibition ratio on Nav1.4 (NaV1.4): 1.4%
Inhibition ratio on Nav1.7 (NaV1.7): <1%
IC50 (hERG ion channels; human, pH 7.4): 4.2 µM
Inhibition ratio on Nav1.3 (NaV1.3): <1%
inhibition at 0.1 µM (human NaV1.8 ion channel): > 80%
Inhibition ratio on Nav1.5 (NaV1.5): 2.8%
Inhibition ratio on Nav1.1 (NaV1.1): <1%
half-life ([1]; rat): 1.9 h
AUC ([1]; rat, read-out: AUC): 44500 ng·h/mL
Cmax ([1]; rat, read-out: Cmax): 5190 ng/mL

Cc1cc(F)ccc1Oc1cc(C(F)(F)F)ccc1C(=O)Nc1ccn(COP(=O)(O)O)c(=O)c1 [VX-150, reference compound]
Inhibition ratio on Nav1.6 (NaV1.6): 1.7%
Inhibition ratio on Nav1.4 (NaV1.4): 3.6%
Inhibition ratio on Nav1.7 (NaV1.7): 8.7%
IC50 (hERG ion channels): 7 µM
Inhibition ratio on Nav1.3 (NaV1.3): 2.2%
Inhibition ratio of Nav1.8 (Activity of inhibition) (human NaV1.8 ion channel): B (80 > B >= 50)
Inhibition ratio on Nav1.5 (NaV1.5): 15.4%
Inhibition ratio on Nav1.1 (NaV1.1): <1%
AUC [1]: 13859 ng·h/mL
Cmax [1]: 1176 ng/mL
T1/2 [1]: 2.2 h
